The record followed here is patent US10696707B2, “Polyene macrolide derivative” (Shionogi & Co., Ltd., priority 2014, dated 2020).

Values after ≈ are worked out from the molar mass of the structure shown. Read-outs that look alike come from different tables or passages of the source. Where only a bound is given, the exact number is not on record here.

Data set [1] is described as follows: Test Example 4: nephrotoxicity, kidney marker gene expression by quantitative RT-PCR after intravenous administration. The class given is in vivo. To be noted: mouse, kidney, mice, nephrotoxicity positive when ΔΔCt of two-third of target genes (Kim1, Timp1, Lcn2) >3. As to the method: (§1) The expression level of marker genes for nephrotoxicity was determined by quantitative RT-PCR to evaluate nephrotoxicity of the compound of the present invention. The compound of the present invention or vehicle was intravenously administered to mice and their kidneys were isolated. After removal of the kidney capsule, all of the kidneys were sliced into two equal halves, and stored at −80° C. in RNAlater® (Ambion) until use. Samples were disrupted and homogenized in QIAzol Lysis Reagent with TissueLyser (Qiagen), and total RNA was extracted using an RNeasy® Mini kit (Qiagen). Total RNA concentrations were determined to read OD260 by absorptiometer.
(§2) The level of expression of the following target genes was determined using one-step quantitative real-time PCR: Kim1, Timp1, and Lcn2. Total RNA (80 ng/2 μL) was used as the template, and TaqMan Gene Expression Assays (Applied Biosystems, for Haver1 (Kim1), assay ID: Mm00506686_m1; Timp1, Mm01341361_m1; Lcn2, Mm01324470_m1) or TaqMan Endogenous Controls (Gapdh, predesigned assay reagent supplied by ABI, Applied Biosystems) were employed as gene-specific probe and primer sets. Quantitative RT-PCR was performed using a QuantiTect™ Probe RT-PCR kit (Qiagen), and transcript levels were quantitated with an Applied Biosystems 7900HT Fast Real Time PCR System (Applied Biosystems). Reverse transcription and amplification conditions were set as follows: 50° C. for 30 min, 95° C. for 15 min, followed by 40 cycles at 95° C. for 15 s and 60° C. for 1 min. The resulting cycle threshold (Ct) value was processed based on the comparative Ct method (ΔΔCt Method), where Gapdh was used as an endogenous reference gene to normalize the expression level of target genes.
(§3) The ΔCt was calculated as follows: Ct, Gapdh−Ct, target gene.
(§4) The ΔΔCt was calculated as follows: ΔCt, treated sample−ΔCt, average of vehicle control sample.
(§5) Higher ΔΔCt values indicate higher expression rates of the target gene and therefore high risk for nephrotoxicity.

Another data set relates to HepG2 cells. The class given is cell-based. To be noted: human, 71 h. Here is the method: The Cytotoxicith of the compounds of the present invention was evaluated by measuting cell numbers automatically using the cell image analyzer, Toxinsight® (Thermofisher Scientific).
HepG2 cells were seeded in 384-well black plates (100000 cells/mL) and allowed to attach for approximately 24 hours at 37° C. in humidified CO2 incubator. Test compounds and positive control (Fungizone®) were initially dissolved as concentrated 20 mmol/L stock solutions in DMSO and added to culture medium, to the final concentration; 1.6, 3.1, 6.3, 12.5, 25, 50, 100 μmol/L. The negative control well was treated with DMSO alone. After exposure of each test compound for approximately 71 hours, each well were added with Hoechst 33342, for staining of nuclei, diluted in D-PBS to the final concentration; 1 μg/mL, and after that, fixed with 4% paraformaldehyde. The cell number, stained with Hoechst 33342, was counted by Toxinsight® (Thermofisher Scientific) in each well. The mean value of cell number and the standard deviation (SD) was calculated (N=4).

The subject of data set [2] is red blood cells (5% RBC suspension). Nature of the data set: Test Example 2-2: in vitro hemolytic activity test (upper limit 200 μmol/L). The format is cell-based. The settings on record: Erythrocyte, read-out: hemolysis IC50. Put shortly:
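Washed defibrinated blood cells suspended at 5% in phenol-red-free Earle's medium, exposed to DMSO-dissolved compounds (top final 200 μmol/L, doubling dilutions) for 1 h at 37° C, 5% CO2. Supernatant A540 read; % hemolysis relative to water-lysed blood and DMSO control, IC50 derived, upper limit 200 μmol/L.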

The test system of the next data set is A. fumigatus ATCC204305. The experiment in a line: Antifungal activity test, MIC by broth microdilution (CLSI M38-A2). The format is cell-based. The settings on record: Aspergillus fumigatus. The method, boiled down: (§6)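 CLSI broth microdilution in RPMI 1640 with 2% glucose, 0.165 mol/L MOPS, pH 7.0; two-fold DMSO dilutions. MIC = lowest concentration giving 100% inhibition versus growth control.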

In the next data set the test system is A. flavus ATCC204304. Described as above. The class given is cell-based. To be noted: Aspergillus flavus. The method, boiled down: as §6
The next data set deals with C. albicans ATCC90028. Nature of the data set: Antifungal activity test, MIC by broth microdilution (CLSI M27-A3). The class given is cell-based. The settings on record: Candida albicans. Put shortly: as §6
The subject of another data set is Kim1, Timp1, and Lcn2. The experiment in a line: Test Example 4: nephrotoxicity, kidney marker gene expression by quantitative RT-PCR after intravenous administration. The class given is in vivo. To be noted: mice, nephrotoxicity positive when ΔΔCt of two-third of target genes (Kim1, Timp1, Lcn2) >3. As to the method:
as §1, §2, §3, §4, §5

Data set [3] deals with red blood cells (5% RBC suspension). The experiment in a line: Test Example 2-1: in vitro hemolytic activity test (upper limit 50, 80, 100 or 200 μmol/L). The class given is cell-based. To be noted: read-out: hemolysis IC50. The method, boiled down:
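A 5% suspension of washed red cells in Earle's medium was exposed to doubling dilutions of compound from DMSO, with maxima of 50, 80, 100 or 200 μmol/L final, for 1 h at 37 °C, 5% CO2. Supernatant absorbance at 540 nm was normalised to water-lysed cells. IC50 is the concentration giving 50% hemolysis; ">" values exceed the top concentration.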

[4] abbreviates: comparative example, hemolysis method 200 (upper limit 200 μmol/L), 37° C., an hour.
The mark [5] stands for this setting: A. fumigatus ATCC204305, broth microdilution, 35° C., 24-48 hours, 100% inhibition, read-out: MIC.
The mark [6] stands for this setting: A. flavus ATCC204304, broth microdilution, 35° C., 24-48 hours, 100% inhibition, read-out: MIC.
The mark [7] stands for this setting: C. albicans ATCC90028, broth microdilution, 35° C., 24-48 hours, 100% inhibition, read-out: MIC.

As for `C[C@@H]1[C@H](O)[C@@H](C)/C=C/C=C/C=C/C=C/C=C/C=C/C=C/[C@H](O[C@@H]2O[C@H](C)[C@@H](O)[C@H](N)[C@@H]2O)C[C@@H]2O[C@](O)(C[C@@H](O)C[C@@H](O)[C@H](O)CC[C@@H](O)C[C@@H](O)CC(=O)O[C@H]1C)C[C@H](O)[C@H]2C(=O)O` [AmB, Amphotericin B, reference compound], the MTD in data set [1] turned out to be 1 mg/kg. In addition, the “cytotoxicity (lowest cytotoxicity concentration)” value (from here on “cytotoxicity”) with HepG2 cells was less than 1.6 µmol/L. Further, in data set [2] (setting [4]), the IC50 came to 1.6 µM.
For the molecule `C[C@@H]1[C@H](O)[C@@H](C)/C=C/C=C/C=C/C=C/C=C/C=C/C=C/[C@H](O[C@@H]2O[C@H](C)[C@@H](O)[C@H](N)[C@@H]2O)C[C@@H]2O[C@](O)(C[C@@H](O)C[C@@H](O)[C@H](O)CC[C@@H](O)C[C@@H](O)CC(=O)O[C@H]1C)C[C@H](O)[C@H]2NC(=O)NCCN` [AmBAU, reference compound], the MIC was 1 µg/mL (≈ 1.02 µM) in the data set on A. fumigatus ATCC204305 (ATCC204305), 1 µg/mL (≈ 1.02 µM) against A. flavus ATCC204304 (ATCC204304) and 0.5 µg/mL (≈ 0.51 µM) against C. albicans ATCC90028 (ATCC90028). This molecule had an MTD in data set [1] of 12 mg/kg. Also, the “cytotoxicity” value in the data set with HepG2 cells was 51.0 µmol/L. Moreover, the IC50 in data set [2] was 58 µM.
On to `C[C@@H]1[C@H](O)[C@@H](C)/C=C/C=C/C=C/C=C/C=C/C=C/C=C/[C@H](O[C@@H]2O[C@H](C)[C@@H](O)[C@H](N)[C@@H]2O)C[C@@H]2O[C@](O)(C[C@@H](O)C[C@@H](O)[C@H](O)CC[C@@H](O)C[C@@H](O)CC(=O)O[C@H]1C)C[C@H](O)[C@H]2NC(=O)NCCC(=O)O` [AmBCU, reference compound], for which the figures for the MIC in the data set with A. fumigatus ATCC204305 (setting [5]), in the data set on A. flavus ATCC204304 (setting [6]) and in the data set with C. albicans ATCC90028 (setting [7]) were 1 µg/mL (≈ 0.99 µM), 1 µg/mL (≈ 0.99 µM) and 0.5 µg/mL (≈ 0.495 µM), respectively. The molecule further displayed an MTD in data set [1] of 3 mg/kg. For the same molecule, the “cytotoxicity” value with HepG2 cells was determined as 25.2 µmol/L.
In the case of `CNC(=O)N[C@H]1[C@@H]2C[C@@H](O[C@@H]3O[C@H](C)[C@@H](O)[C@H](N)[C@@H]3O)/C=C/C=C/C=C/C=C/C=C/C=C/C=C/[C@H](C)[C@@H](O)[C@@H](C)[C@H](C)OC(=O)C[C@H](O)C[C@H](O)CC[C@@H](O)[C@H](O)C[C@H](O)C[C@](O)(C[C@@H]1O)O2` [AmBMU, reference compound], the MIC worked out at 1 µg/mL (≈ 1.05 µM) in the data set with A. fumigatus ATCC204305 (setting [5]), 1 µg/mL (≈ 1.05 µM) in the data set on A. flavus ATCC204304 (setting [6]) and 0.5 µg/mL (≈ 0.525 µM) with C. albicans ATCC90028 (setting [7]). Moreover, the MTD in data set [1] was 12 mg/kg. Also, the “cytotoxicity” value in the data set on HepG2 cells is 12.5 µmol/L. Besides, the IC50 in data set [2] (setting [4]) was 130 µM.
Take `C[C@@H]1[C@H](O)[C@@H](C)/C=C/C=C/C=C/C=C/C=C/C=C/C=C/[C@H](O[C@@H]2O[C@H](C)[C@@H](O)[C@H](N)[C@@H]2O)C[C@@H]2O[C@](O)(C[C@@H](O)C[C@@H](O)[C@H](O)CC[C@@H](O)C[C@@H](O)CC(=O)O[C@H]1C)C[C@H](O)[C@H]2NC(=O)NC1(C#N)CC1` [I-105]: the “nephrotoxicity MTD” value with Kim1, Timp1, and Lcn2 is given as more than 24 mg/kg. Moreover, the IC50 in data set [3] (hemolysis method 200 (upper concentration 200 μmol/L), 5% RBC suspension, 37° C., one hour) is more than 200 µM.
Take `C[C@@H]1[C@H](O)[C@@H](C)/C=C/C=C/C=C/C=C/C=C/C=C/C=C/[C@H](O[C@@H]2O[C@H](C)[C@@H](O)[C@H](N)[C@@H]2O)C[C@@H]2O[C@](O)(C[C@@H](O)C[C@@H](O)[C@H](O)CC[C@@H](O)C[C@@H](O)CC(=O)O[C@H]1C)C[C@H](O)[C@H]2NC(=O)NO` [I-219]: the MTD in data set [1] is 16 mg/kg.
Take `C[C@@H]1[C@H](O)[C@@H](C)/C=C/C=C/C=C/C=C/C=C/C=C/C=C/[C@H](O[C@@H]2O[C@H](C)[C@@H](O)[C@H](N)[C@@H]2O)C[C@@H]2O[C@](O)(C[C@@H](O)C[C@@H](O)[C@H](O)CC[C@@H](O)C[C@@H](O)CC(=O)O[C@H]1C)C[C@H](O)[C@H]2NC(=O)N/N=C/[C@H](O)CO` [I-235]: in the data set with Kim1, Timp1, and Lcn2, the “nephrotoxicity MTD” value is more than 24 mg/kg.
In turn, `C[C@@H]1[C@H](O)[C@@H](C)/C=C/C=C/C=C/C=C/C=C/C=C/C=C/[C@H](O[C@@H]2O[C@H](C)[C@@H](O)[C@H](NC(=N)N)[C@@H]2O)C[C@@H]2O[C@](O)(C[C@@H](O)C[C@@H](O)[C@H](O)CC[C@@H](O)C[C@@H](O)CC(=O)O[C@H]1C)C[C@H](O)[C@H]2CO` [I-394] had an MTD in data set [1] of more than 24 mg/kg.
Regarding `C[C@@H]1[C@H](O)[C@@H](C)/C=C/C=C/C=C/C=C/C=C/C=C/C=C/[C@H](O[C@@H]2O[C@H](C)[C@@H](O)[C@H](N)[C@@H]2O)C[C@@H]2O[C@](O)(C[C@@H](O)C[C@@H](O)[C@H](O)CC[C@@H](O)C[C@@H](O)CC(=O)O[C@H]1C)C[C@H](O)[C@H]2C(=O)NC(CO[C@H]1O[C@H](CO)[C@@H](O)[C@H](O)[C@@H]1O)CO[C@H]1O[C@H](CO)[C@@H](O)[C@H](O)[C@@H]1O` [I-396], in data set [1], the MTD was 16 mg/kg. Further, the IC50 in data set [3] (Erythrocyte, 1 h) is more than 100 µM.
